Experiments:
Type in all cases: in vivo
Abutilon theophrasti [1] = assay: Pre-emergence herbicidal action against ABUTH; conditions: visual score after 3 weeks vs untreated controls
Description: (§1) Seeds of monocotyledonous and dicotyledonous weed plants and crop plants are laid out in sandy loam soil in wood-fiber pots and covered with soil. The compounds of the invention, formulated in the form of wettable powders (WP) or as emulsion concentrates (EC), are then applied to the surface of the covering soil in the form of an aqueous suspension or emulsion at a water application rate equivalent to 600 to 800 l/ha, with addition of 0.2% wetting agent. After the treatment, the pots are placed in a greenhouse and kept under good growth conditions for the trial plants. The damage to the test plants is scored visually after a test period of 3 weeks by comparison with untreated controls (herbicidal activity in percent (%): 100% activity=the plants have died, 0% activity=like control plants). […] The tables below illustrate, in an illustrative manner, the post-emergence herbicidal action of the compounds of the invention, the herbicidal activity being stated in percent.

Alopecurus myosuroides [2] = assay: Pre-emergence herbicidal action against ALOMY; conditions: visual score after 3 weeks vs untreated controls
Description: as §1

Amaranthus retroflexus [3] = assay: Pre-emergence herbicidal action against AMARE; conditions: visual score after 3 weeks vs untreated controls
Description: as §1

Avena fatua [4] = assay: Pre-emergence herbicidal action against AVEFA; conditions: 80 g/ha; visual score after 3 weeks vs untreated controls
Description: as §1

Echinochloa crus-galli [5] = assay: Pre-emergence herbicidal action against ECHCG; conditions: 80 g/ha; visual score after 3 weeks vs untreated controls
Description: as §1

Matricaria inodora [6] = assay: Pre-emergence herbicidal action against MATIN; conditions: visual score after 3 weeks vs untreated controls
Description: as §1

Lolium rigidum = assay: Pre-emergence herbicidal action against LOLRI; conditions: 80 g/ha
Description: as §1

Setaria viridis [7] = assay: Pre-emergence herbicidal action against SETVI
Description: as §1

Viola tricolor [8] = assay: Pre-emergence herbicidal action against VIOTR
Description: as §1

Abutilon theophrasti [9] = assay: Post-emergence herbicidal action against ABUTH
Experimental: (§2) Seeds of monocotyledonous and dicotyledonous weed and crop plants are laid out in sandy loam soil in wood-fiber pots, covered with soil and cultivated in a greenhouse under good growth conditions. 2 to 3 weeks after sowing, the test plants are treated at the one-leaf stage. The compounds of the invention, formulated in the form of wettable powders (WP) or as emulsion concentrates (EC), are then sprayed onto the green parts of the plants in the form of an aqueous suspension or emulsion at a water application rate equivalent to 600 to 800 l/ha, with addition of 0.2% wetting agent. After the test plants have been left to stand in the greenhouse under optimal growth conditions for about 3 weeks, the action of the preparations is assessed visually in comparison to untreated controls (herbicidal action in percent (%): 100% activity=the plants have died, 0% activity=like control plants). […] The tables below illustrate, in an illustrative manner, the post-emergence herbicidal action of the compounds of the invention, the herbicidal activity being stated in percent.

Alopecurus myosuroides [10] = assay: Post-emergence herbicidal action against ALOMY
Experimental: as §2

Amaranthus retroflexus [11] = assay: Post-emergence herbicidal action against AMARE; conditions: visual assessment about 3 weeks after treatment
Experimental: as §2

Echinochloa crus-galli [12] = assay: Post-emergence herbicidal action against ECHCG; conditions: visual assessment about 3 weeks after treatment
Experimental: as §2

Pharbitis purpurea = assay: Post-emergence herbicidal action against PHBPU; conditions: visual assessment about 3 weeks after treatment
Experimental: as §2

Setaria viridis [13] = assay: Post-emergence herbicidal action against SETVI; conditions: visual assessment about 3 weeks after treatment
Experimental: as §2

Viola tricolor [14] = assay: Post-emergence herbicidal action against VIOTR
Experimental: as §2

Polygonum convolvulus = assay: Pre-emergence herbicidal action against POLCO
Description: as §1

Veronica persica [15] = assay: Pre-emergence herbicidal action against VERPE; conditions: 80 g/ha
Description: as §1

Matricaria inodora [16] = assay: Post-emergence herbicidal action against MATIN; conditions: visual assessment about 3 weeks after treatment
Experimental: as §2

Veronica persica [17] = assay: Post-emergence herbicidal action against VERPE; conditions: visual assessment about 3 weeks after treatment
Experimental: as §2

Avena fatua [18] = assay: Post-emergence herbicidal action against AVEFA; conditions: 20 g/ha, visual assessment about 3 weeks after treatment
Experimental: as §2

Digitaria sanguinalis = assay: Pre-emergence herbicidal action against DIGSA
Description: as §1

| Structure (SMILES) | Pre-emergence action against ABUTH (Abutilon theophrasti [1]; 20 g/ha) [%] | Pre-emergence action against ABUTH (Abutilon theophrasti [1]; 80 g/ha) [%] | Pre-emergence action against ALOMY (Alopecurus myosuroides [2]; 80 g/ha) [%] | Pre-emergence action against AMARE (Amaranthus retroflexus [3]; 20 g/ha) [%] | Pre-emergence action against AMARE (Amaranthus retroflexus [3]; 80 g/ha) [%] | Pre-emergence action against AVEFA (Avena fatua [4]) [%] | Pre-emergence action against ECHCG (Echinochloa crus-galli [5]) [%] | Pre-emergence action against MATIN (Matricaria inodora [6]; 80 g/ha) [%] | Pre-emergence action against SETVI (Setaria viridis [7]; 80 g/ha) [%] | Pre-emergence action against VIOTR (Viola tricolor [8]; 80 g/ha) [%] | Post-emergence action against ABUTH (Abutilon theophrasti [9]; 5 g/ha) [%] | Post-emergence action against ABUTH (Abutilon theophrasti [9]; 20 g/ha) [%] | Post-emergence action against ALOMY (Alopecurus myosuroides [10]; 5 g/ha) [%] | Post-emergence action against ALOMY (Alopecurus myosuroides [10]; 20 g/ha) [%] | Post-emergence action against AMARE in % (Amaranthus retroflexus [11]; 5 g/ha) [%] | Post-emergence action against AMARE in % (Amaranthus retroflexus [11]; 20 g/ha) [%] | Post-emergence action against ECHCG in % (Echinochloa crus-galli [12]; 20 g/ha) [%] | Post-emergence action against SETVI in % (Setaria viridis [13]; 20 g/ha) [%] | Post-emergence action against VIOTR in % (Viola tricolor [14]; 20 g/ha) [%] | Pre-emergence action against MATIN (Matricaria inodora [6]; 20 g/ha) [%] | other results |
| --- | --- | --- | --- | --- | --- | --- | --- | --- | --- | --- | --- | --- | --- | --- | --- | --- | --- | --- | --- | --- | --- |
| CCN(C)C(=O)c1c(Br)ccc(C(=O)Nc2nnnn2C)c1Cl [Example 1-192] | 80 | 100 | 100 | 80 | 100 | 80 | 80 | 100 | 100 | 100 | 90 | 90 | 90 | 100 | 100 | 100 | 100 | 100 | 80 |  | Pre-emergence action against LOLRI (Lolium rigidum): 80%; Post-emergence action against PHBPU in % (Pharbitis purpurea; 20 g/ha): 80%; Post-emergence action against SETVI in % (Setaria viridis [13]; 5 g/ha): 100% |
| CN(C(=O)c1c(C(F)F)ccc(C(=O)Nc2nnnn2C)c1Cl)C1CC1 [Example 1-156] | 100 | 100 | 100 | 100 | 100 | 80 | 90 | 100 | 100 | 100 | 90 | 90 | 80 | 90 | 100 | 100 | 90 | 90 | 90 | 90 | Pre-emergence action against POLCO (Polygonum convolvulus; 80 g/ha): 80%; Pre-emergence action against VERPE (Veronica persica [15]): 90%; Post-emergence action against ECHCG in % (Echinochloa crus-galli [12]; 5 g/ha): 90%; Post-emergence action against MATIN in % (Matricaria inodora [16]; 5 g/ha): 80%; Post-emergence action against MATIN in % (Matricaria inodora [16]; 20 g/ha): 90%; Post-emergence action against PHBPU in % (Pharbitis purpurea; 5 g/ha): 80%; Post-emergence action against PHBPU in % (Pharbitis purpurea; 20 g/ha): 90%; Post-emergence action against SETVI in % (Setaria viridis [13]; 5 g/ha): 90%; Post-emergence action against VERPE in % (Veronica persica [17]; 5 g/ha): 80%; Post-emergence action against VERPE in % (Veronica persica [17]; 20 g/ha): 80%; Post-emergence action against VIOTR in % (Viola tricolor [14]; 5 g/ha): 90% |
| CN(C)C(=O)c1c(Br)ccc(C(=O)Nc2nnnn2C)c1Cl [Example 1-191] | 100 | 100 | 100 |  | 100 | 90 | 90 | 100 | 100 | 100 | 80 | 90 | 80 | 100 | 100 | 100 | 100 | 100 |  | 80 | Pre-emergence action against ALOMY (Alopecurus myosuroides [2]; 20 g/ha): 90%; Pre-emergence action against LOLRI (Lolium rigidum): 80%; Pre-emergence action against VERPE (Veronica persica [15]): 90%; Post-emergence action against AVEFA in % (Avena fatua [18]): 90% |
| CCN(C)C(=O)c1c(Br)ccc(C(=O)Nc2nnnn2CC)c1Cl [Example 2-192] | 100 | 100 | 100 | 100 | 100 | 80 | 90 | 100 | 100 | 100 | 80 | 80 | 80 | 100 | 100 | 100 | 100 | 100 | 100 | 100 | Pre-emergence action against LOLRI (Lolium rigidum): 80%; Pre-emergence action against VERPE (Veronica persica [15]): 80%; Post-emergence action against AVEFA in % (Avena fatua [18]): 80%; Post-emergence action against PHBPU in % (Pharbitis purpurea; 20 g/ha): 80%; Post-emergence action against SETVI in % (Setaria viridis [13]; 5 g/ha): 100% |
| CCN(C)C(=O)c1c(C(F)F)ccc(C(=O)Nc2nnnn2CC)c1C [Example 2-51] | 100 | 100 | 100 | 90 | 90 | 80 |  | 100 |  | 80 | 90 | 90 | 80 | 90 | 90 | 100 | 90 | 90 | 90 | 90 | Pre-emergence action against POLCO (Polygonum convolvulus; 80 g/ha): 90%; Post-emergence action against MATIN in % (Matricaria inodora [16]; 20 g/ha): 80%; Post-emergence action against SETVI in % (Setaria viridis [13]; 5 g/ha): 80%; Post-emergence action against VERPE in % (Veronica persica [17]; 20 g/ha): 90%; Post-emergence action against VIOTR in % (Viola tricolor [14]; 5 g/ha): 90% |
| CN(CC(F)F)C(=O)c1c(C(F)(F)F)ccc(C(=O)Nc2nnnn2C)c1Cl [Example 1-128] | 100 | 100 | 100 | 100 | 100 |  | 100 | 90 | 100 | 100 | 80 | 90 |  | 80 | 100 | 100 |  | 90 | 100 | 80 | Pre-emergence action against DIGSA (Digitaria sanguinalis; 20 g/ha): 100%; Pre-emergence action against DIGSA (Digitaria sanguinalis; 80 g/ha): 100%; Pre-emergence action against POLCO (Polygonum convolvulus; 20 g/ha): 80%; Pre-emergence action against POLCO (Polygonum convolvulus; 80 g/ha): 80%; Pre-emergence action against SETVI (Setaria viridis [7]; 20 g/ha): 90%; Pre-emergence action against VERPE (Veronica persica [15]): 100%; Pre-emergence action against VIOTR (Viola tricolor [8]; 20 g/ha): 100%; Post-emergence action against MATIN in % (Matricaria inodora [16]; 20 g/ha): 80%; Post-emergence action against PHBPU in % (Pharbitis purpurea; 20 g/ha): 90%; Post-emergence action against VERPE in % (Veronica persica [17]; 20 g/ha): 90%; Post-emergence action against VIOTR in % (Viola tricolor [14]; 5 g/ha): 90% |

— US12599136B2, “Substituted isophthalic acid diamides and their use as herbicides” (Bayer Aktiengesellschaft, priority 2020, dated 2026)
